Results reported in patent US7138361B2, “Herbicidal heterocycles” (E. I. du Pont de Nemours and Company, priority 2000, dated 2006).

Legend:
Assay type in all cases: in vivo
rice (Oryza saliva) [1] = experiment: Test C flooded paddy test; settings: for Rice plant response rating: Flooded Paddy, scale 0 to 100, 0 no effect, 100 complete control; for Plant response rating, Rice: scale 0 to 100 (0 no effect, 100 complete control)
Summary of the method: (§1)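 Rice and three paddy weeds were grown to the 2-leaf stage under flooded conditions, then treated and kept in a greenhouse for 12–14 days. Response was rated visually against untreated controls on a 0–100 scale, where 100 is complete control.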

[2] = system: smallflower flatsedge (Cyperus difformis); experiment: Test C flooded paddy test; settings: for Flatsedge plant response rating: Flooded Paddy, scale 0 to 100, 0 no effect, 100 complete control; for Plant response rating, Flatsedge: scale 0 to 100 (0 no effect, 100 complete control)
Summary of the method: as §1

[3] = system: duck salad (Heteranthera limosa); experiment: Test C flooded paddy test; settings: for Ducksalad plant response rating: Flooded Paddy, scale 0 to 100, 0 no effect, 100 complete control; for Plant response rating, Ducksalad: scale 0 to 100 (0 no effect, 100 complete control)
Summary of the method: as §1

[4] = system: barnyardgrass (Echinochloa crus-galli); experiment: Test C flooded paddy test; settings: for Barnyardgrass plant response rating: Flooded Paddy, scale 0 to 100, 0 no effect, 100 complete control; for Plant response rating, Barnyardgrass: scale 0 to 100 (0 no effect, 100 complete control)
Summary of the method: as §1

Nightshade = experiment: Test C preemergence; settings: Rate 250 g/ha, visual evaluation after 12 to 14 days
[5] = system: crabgrass (Digitaria sanguinalis); experiment: Test B postemergence
Summary of the method: (§2)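 Post-treatment, species sat 13–15 days under greenhouse conditions before visual scoring against controls, 0 (no effect) through 100 (complete control). Application preemergence to sown seeds or postemergence at 1- to 4-leaf stage, using a non-phytotoxic solvent/surfactant formulation.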

[6] = system: cocklebur (Xanthium strumarium); experiment: Test B postemergence
Summary of the method: as §2

[7] = system: lambsquarters (Chenopodium album); experiment: Test B postemergence
Summary of the method: as §2

[8] = system: blackgrass (Alopecurus myosuroides); experiment: Test B postemergence
Summary of the method: as §2

wild oat (Avena fatua) = experiment: Test B postemergence
Summary of the method: as §2

[9] = system: pigweed (Amaranthus retroflexus); experiment: Test B postemergence
Summary of the method: as §2

[10] = system: Surinam grass (Brachiaria decumbens); experiment: Test B postemergence
Summary of the method: as §2

[11] = system: barnyardgrass (Echinochloa crus-galli); experiment: Test B postemergence
Summary of the method: as §2

[12] = system: morning glory (Ipomoea hederacea); experiment: Test B postemergence
Summary of the method: as §2

Sunflower = experiment: Test C preemergence; settings: scale 0 to 100, 0 no effect, 100 complete control
rice (Oryza saliva) [13] = experiment: Test B preemergence
Summary of the method: as §2

[14] = system: crabgrass (Digitaria sanguinalis); experiment: Test B preemergence
Summary of the method: as §2

[15] = system: cocklebur (Xanthium strumarium); experiment: Test B preemergence
Summary of the method: as §2

corn (Zea mays) = experiment: Test B preemergence
Summary of the method: as §2

[16] = system: lambsquarters (Chenopodium album); experiment: Test B preemergence
Summary of the method: as §2

[17] = system: velvetleaf (Abutilon theophrasti); experiment: Test B preemergence
Summary of the method: as §2

[18] = system: pigweed (Amaranthus retroflexus); experiment: Test B preemergence
Summary of the method: as §2

[19] = system: Surinam grass (Brachiaria decumbens); experiment: Test B preemergence
Summary of the method: as §2

[20] = system: barnyardgrass (Echinochloa crus-galli); experiment: Test B preemergence
Summary of the method: as §2

[21] = system: giant foxtail (Setaria faberii); experiment: Test B preemergence
Summary of the method: as §2

[22] = system: morning glory (Ipomoea hederacea); experiment: Test B preemergence
Summary of the method: as §2

[23] = flooded paddy test, Rate 62 g/ha
[24] = flooded paddy test, Rate 125 g/ha
[25] = Rate 125 g/ha, scale 0 (no effect) to 100 (complete control), 13 to 15 days
[26] = Rate 500 g/ha, scale 0 to 100, 0 is no effect, 100 is complete control, 13 to 15 days
[27] = Preemergence, Rate 500 g/ha, scale 0 to 100, 0 no effect, 100 complete control
[28] = preemergence, Rate 125 g/ha, scale 0 to 100, 0 no effect, 100 complete control
[29] = flooded paddy test, Rate 250 g/ha
[30] = flooded paddy test, Rate 62 g/ha, visually evaluated after 12 to 14 days, 0 = no effect, 100 = complete control
[31] = Rate 125 g/ha, scale 0 to 100, 0 no effect, 100 complete control
[32] = Rate 500 g/ha, scale 0 (no effect) to 100 (complete control), 13 to 15 days
[33] = preemergence, Rate 125 g/ha, scale of 0 to 100 where 0 is no effect and 100 is complete control, 13 to 15 days

## CC(C)(C)c1ccn(C2CCN(c3cccc(C(F)(F)F)c3)C2=S)n1 (stereo not drawn) [Compound 22]
Rice (Oryza saliva) [1]; Rate 250 g/ha
  Rice plant response rating: 20
Rice (Oryza saliva) [1]; Rate 500 g/ha
  Rice plant response rating: 40
Rice (Oryza saliva) [1]; [23]
  Plant response rating, Rice: 20
Rice (Oryza saliva) [1]; [24]
  Plant response rating, Rice: 20
[2]; Rate 250 g/ha
  Flatsedge plant response rating: 100
[2]; Rate 500 g/ha
  Flatsedge plant response rating: 100
[2]; [23]
  Plant response rating, Flatsedge: 100
[2]; [24]
  Plant response rating, Flatsedge: 100
[3]; Rate 250 g/ha
  Ducksalad plant response rating: 80
[3]; Rate 500 g/ha
  Ducksalad plant response rating: 100
[3]; [23]
  Plant response rating, Ducksalad: 50
[3]; [24]
  Plant response rating, Ducksalad: 80
[4]; Rate 250 g/ha
  Barnyardgrass plant response rating: 100
[4]; Rate 500 g/ha
  Barnyardgrass plant response rating: 100
[4]; [23]
  Plant response rating, Barnyardgrass: 40
[4]; [24]
  Plant response rating, Barnyardgrass: 80
Nightshade
  Plant response rating (0 to 100), Nightshade: 40
[5]; [25]
  Plant response rating, Crabgrass: 40
[5]; [26]
  Plant response rating, Crabgrass: 40
[6]; [25]
  Plant response rating, Cocklebur: 20
[6]; [26]
  Plant response rating, Cocklebur: 20
[7]; [25]
  Plant response rating, Lambsquarters: 90
[7]; [26]
  Plant response rating, Lambsquarters: 90
[8]; [25]
  Plant response rating, Blackgrass: 0
[8]; [26]
  Plant response rating, Blackgrass: 0
Wild oat (Avena fatua); [25]
  Plant response rating, Wild Oat: 0
Wild oat (Avena fatua); [26]
  Plant response rating, Wild Oat: 0
[9]; [25]
  Plant response rating, Pigweed: 80
[9]; [26]
  Plant response rating, Pigweed: 90
[10]; [26]
  Plant response rating, Surinam grass: 20
[11]; [25]
  Plant response rating, Barnyardgrass: 0
[11]; [26]
  Plant response rating, Barnyardgrass: 80
[12]; [25]
  Plant response rating, Morningglory: 30
[12]; [26]
  Plant response rating, Morningglory: 30
Sunflower; Rate 125 g/ha
  Plant response rating, Sunflower: 0
Rice (Oryza saliva) [13]; [27]
  Plant response rating, Rice: 0
Rice (Oryza saliva) [13]; [28]
  Plant response rating, Rice: 0
[14]; [27]
  Plant response rating, Crabgrass: 100
[14]; [28]
  Plant response rating, Crabgrass: 0
[15]; [27]
  Plant response rating, Cocklebur: 0
[15]; [28]
  Plant response rating, Cocklebur: 0
Corn (Zea mays); [27]
  Plant response rating, Corn: 0
Corn (Zea mays); [28]
  Plant response rating, Corn: 0
[16]; [27]
  Plant response rating, Lambsquarters: 100
[16]; [28]
  Plant response rating, Lambsquarters: 100
[17]; [27]
  Plant response rating, Velvetleaf: 0
[17]; [28]
  Plant response rating, Velvetleaf: 0
[18]; [27]
  Plant response rating, Pigweed: 100
[18]; [28]
  Plant response rating, Pigweed: 90
[19]; [27]
  Plant response rating, Surinam grass: 50
[19]; [28]
  Plant response rating, Surinam grass: 30
[20]; [27]
  Plant response rating, Barnyardgrass: 80
[20]; [28]
  Plant response rating, Barnyardgrass: 0
[21]; [27]
  Plant response rating, Foxtail, Giant: 100
[21]; [28]
  Plant response rating, Foxtail, Giant: 30
[22]; [27]
  Plant response rating, Morningglory: 0
[22]; [28]
  Plant response rating, Morningglory: 0

## Cc1cc(C)nc(N2CCC(n3ccc(C(C)(C)C)n3)C2=O)c1 (stereo not drawn) [Compound 138]
Rice (Oryza saliva) [1]; Rate 500 g/ha
  Rice plant response rating: 70
Rice (Oryza saliva) [1]; [24]
  Plant response rating, Rice: 0
Rice (Oryza saliva) [1]; [29]
  Plant response rating, Rice: 30
Rice (Oryza saliva) [1]; [30]
  Plant response rating (scale 0 to 100), Rice: 0
[2]; Rate 500 g/ha
  Flatsedge plant response rating: 100
[2]; [24]
  Plant response rating, Flatsedge: 90
[2]; [29]
  Plant response rating, Flatsedge: 100
[2]; [30]
  Plant response rating (scale 0 to 100), Flatsedge: 90
[3]; Rate 500 g/ha
  Ducksalad plant response rating: 100
[3]; [24]
  Plant response rating, Ducksalad: 20
[3]; [29]
  Plant response rating, Ducksalad: 60
[3]; [30]
  Plant response rating (scale 0 to 100), Ducksalad: 0
[4]; Rate 500 g/ha
  Barnyardgrass plant response rating: 100
[4]; [24]
  Plant response rating, Barnyardgrass: 40
[4]; [29]
  Plant response rating, Barnyardgrass: 100
[4]; [30]
  Plant response rating (scale 0 to 100), Barnyardgrass: 0
[5]; [31]
  Plant response rating, Crabgrass: 0
[5]; [32]
  Plant response rating, Crabgrass: 0
[6]; [31]
  Plant response rating, Cocklebur: 0
[6]; [32]
  Plant response rating, Cocklebur: 0
[7]; [31]
  Plant response rating, Lambsquarters: 0
[7]; [32]
  Plant response rating, Lambsquarters: 0
[8]; [31]
  Plant response rating, Blackgrass: 0
[8]; [32]
  Plant response rating, Blackgrass: 0
Wild oat (Avena fatua); [31]
  Plant response rating, Wild Oat: 0
Wild oat (Avena fatua); [32]
  Plant response rating, Wild Oat: 0
[9]; [31]
  Plant response rating, Pigweed: 0
[9]; [32]
  Plant response rating, Pigweed: 30
[10]; [31]
  Plant response rating, Surinam grass: 0
[10]; [32]
  Plant response rating, Surinam grass: 0
[11]; [31]
  Plant response rating, Barnyardgrass: 0
[11]; [32]
  Plant response rating, Barnyardgrass: 0
[12]; [31]
  Plant response rating, Morningglory: 10
[12]; [32]
  Plant response rating, Morningglory: 30
Sunflower; Rate 250 g/ha
  Plant response rating, Sunflower: 50
Rice (Oryza saliva) [13]; [27]
  Plant response rating, Rice: 100
Rice (Oryza saliva) [13]; [33]
  Plant response rating, Rice: 0
[14]; [27]
  Plant response rating, Crabgrass: 100
[14]; [33]
  Plant response rating, Crabgrass: 100
[15]; [27]
  Plant response rating, Cocklebur: 100
[15]; [33]
  Plant response rating, Cocklebur: 0
Corn (Zea mays); [27]
  Plant response rating, Corn: 20
Corn (Zea mays); [33]
  Plant response rating, Corn: 0
[16]; [27]
  Plant response rating, Lambsquarters: 100
[16]; [33]
  Plant response rating, Lambsquarters: 100
[17]; [27]
  Plant response rating, Velvetleaf: 0
[17]; [33]
  Plant response rating, Velvetleaf: 0
[18]; [27]
  Plant response rating, Pigweed: 100
[18]; [33]
  Plant response rating, Pigweed: 100
[19]; [27]
  Plant response rating, Surinam grass: 100
[19]; [33]
  Plant response rating, Surinam grass: 70
[20]; [27]
  Plant response rating, Barnyardgrass: 100
[20]; [33]
  Plant response rating, Barnyardgrass: 0
[21]; [27]
  Plant response rating, Foxtail, Giant: 100
[21]; [33]
  Plant response rating, Foxtail, Giant: 80
[22]; [27]
  Plant response rating, Morningglory: 100
[22]; [33]
  Plant response rating, Morningglory: 90
